Measured values: ChEMBL document CHEMBL5352417, “Design, synthesis, and biological evaluation of aromatic tertiary amine derivatives as selective butyrylcholinesterase inhibitors for the treatment of Alzheimer's disease” (Eur J Med Chem, 2022)
The source made the active and inactive calls. No cut-off for these calls is given here.

Assays:
[1] = system: SH-SY5Y; experiment: Neuroprotective activity against amyloid beta (1 to 42)-induced injury in human SH-SY5Y cells assessed as cell viability by MTT assay; assay type: functional, cell-based; conditions: dose 0.5-50 µM
[2] = target: T1, Cholinesterase (Homo sapiens, UniProt P06276); experiment: Inhibition of human BChE using butyrylthiocholine iodide as substrate measured for 3 mins by Ellman's method
T1 sequence (P06276 whole entry): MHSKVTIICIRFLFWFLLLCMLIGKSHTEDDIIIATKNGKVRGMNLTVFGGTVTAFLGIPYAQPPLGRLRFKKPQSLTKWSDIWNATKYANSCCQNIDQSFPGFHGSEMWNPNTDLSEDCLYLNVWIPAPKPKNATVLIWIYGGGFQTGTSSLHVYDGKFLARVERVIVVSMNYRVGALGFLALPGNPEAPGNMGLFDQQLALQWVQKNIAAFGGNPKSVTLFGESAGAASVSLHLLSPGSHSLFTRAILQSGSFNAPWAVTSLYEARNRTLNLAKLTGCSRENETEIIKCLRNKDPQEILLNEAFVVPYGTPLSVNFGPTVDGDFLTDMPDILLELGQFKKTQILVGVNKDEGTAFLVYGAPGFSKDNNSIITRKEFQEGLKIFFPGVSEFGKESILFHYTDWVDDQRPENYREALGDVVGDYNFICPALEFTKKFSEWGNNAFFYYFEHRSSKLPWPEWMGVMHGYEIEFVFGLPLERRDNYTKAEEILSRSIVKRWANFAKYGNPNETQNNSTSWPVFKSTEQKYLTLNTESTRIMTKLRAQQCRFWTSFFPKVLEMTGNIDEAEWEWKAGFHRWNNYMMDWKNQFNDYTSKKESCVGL

[3] = target: Acetylcholinesterase (Electrophorus electricus) (UniProt O42275); experiment: Inhibition of electric eel AchE using acetylthiocholine iodide as substrate at <10 uM measured for 3 mins by Ellman's method relative to control
Chain of Acetylcholinesterase (Electrophorus electricus) (O42275 24-633 limits assumed): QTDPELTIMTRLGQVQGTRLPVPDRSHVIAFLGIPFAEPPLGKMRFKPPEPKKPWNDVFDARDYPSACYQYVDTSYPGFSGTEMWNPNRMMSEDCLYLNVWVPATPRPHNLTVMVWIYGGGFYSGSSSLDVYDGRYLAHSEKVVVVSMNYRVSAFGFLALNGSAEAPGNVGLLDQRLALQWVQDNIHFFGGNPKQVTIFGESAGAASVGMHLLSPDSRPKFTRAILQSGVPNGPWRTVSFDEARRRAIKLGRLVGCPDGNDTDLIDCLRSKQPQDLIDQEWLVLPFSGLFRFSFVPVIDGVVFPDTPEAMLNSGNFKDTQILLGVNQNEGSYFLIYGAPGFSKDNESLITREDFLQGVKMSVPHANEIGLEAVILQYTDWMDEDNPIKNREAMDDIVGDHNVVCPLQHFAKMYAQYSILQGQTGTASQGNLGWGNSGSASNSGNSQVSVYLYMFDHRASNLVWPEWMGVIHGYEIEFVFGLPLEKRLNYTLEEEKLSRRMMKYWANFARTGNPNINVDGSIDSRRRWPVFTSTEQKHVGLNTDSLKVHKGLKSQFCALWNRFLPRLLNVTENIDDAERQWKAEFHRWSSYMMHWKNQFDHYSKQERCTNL

[4] = Neurotoxicity against human SH-SY5Y cells assessed as survival rate incubated for 24 hrs by MTT assay relative to control; assay type: toxicity, cell-based; design: concentration or dose not given beside the values; conditions: read-out: Survival
[5] = Neurotoxicity against mouse HT-22 cells incubated for 24 hrs by MTT assay; assay type: toxicity, cell-based; conditions: read-out: LD50
[6] = Neurotoxicity against rat PC12 cells incubated for 24 hrs by MTT assay; assay type: toxicity, cell-based, PC-12; conditions: read-out: LD50
[7] = system: Mus musculus; experiment: Antialzheimer activity against amyloid beta (1 to 42)-induced mouse model of cognitive dysfunction assessed as latency time at 15 mg/kg, po measured for 14 days by Morris Water maze method; assay type: functional, ICR; conditions: time 14 day
[8] = target: Cholinesterase (Equus caballus) (UniProt P81908); experiment: Inhibition of horse serum BuChE using butyrylthiocholine iodide as substrate at <10 uM measured for 3 mins by Ellman's method relative to control; assay type: cell-free
Chain of Cholinesterase (Equus caballus) (P81908 whole entry): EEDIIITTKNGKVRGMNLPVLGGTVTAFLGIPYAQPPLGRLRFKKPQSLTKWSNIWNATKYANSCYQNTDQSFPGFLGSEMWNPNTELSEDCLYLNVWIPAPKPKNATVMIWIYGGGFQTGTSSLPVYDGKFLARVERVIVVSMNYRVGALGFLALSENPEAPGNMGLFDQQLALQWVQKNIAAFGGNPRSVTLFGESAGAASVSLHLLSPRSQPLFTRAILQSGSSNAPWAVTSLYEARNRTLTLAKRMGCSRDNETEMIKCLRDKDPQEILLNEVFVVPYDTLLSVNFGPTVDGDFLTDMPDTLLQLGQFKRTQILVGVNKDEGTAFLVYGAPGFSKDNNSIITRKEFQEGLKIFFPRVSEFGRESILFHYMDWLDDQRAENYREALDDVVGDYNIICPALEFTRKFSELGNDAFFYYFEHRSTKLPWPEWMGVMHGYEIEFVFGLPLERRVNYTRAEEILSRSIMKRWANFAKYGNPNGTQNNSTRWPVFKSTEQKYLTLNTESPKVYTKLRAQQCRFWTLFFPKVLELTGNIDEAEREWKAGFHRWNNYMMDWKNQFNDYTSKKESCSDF

[9] = target: T1, Cholinesterase; experiment: Non-competitive inhibition of BChE (unknown origin) using butyrylthiocholine iodide as substrate upto 400 nM measured for 5 mins by Lineweaver-Burk plot analysis
[10] = Neurotoxicity against mouse BV-2 cells incubated for 24 hrs by MTT assay; assay type: toxicity, cell-based; conditions: read-out: LD50
[11] = Acute toxicity in fasted ICR mouse assessed as change in animal growth at 1 g/kg, po administered on day 1 followed by food supply after 2 hrs post compound administration measured after few days after first day administration; assay type: organism-based; conditions: in vivo, 1000 mg/kg
[12] = Effective permeability of compound at 25 ug/ml incubated for 18 hrs by PAMPA-BBB assay; assay type: ADME; conditions: dose 25 µg/ml, read-out: Peff
[13] = Acute toxicity in fasted ICR mouse assessed as obvious toxicity at 1 g/kg, po followed by food supply after 2 hrs post compound administration measured for 14 days; assay type: organism-based; conditions: in vivo, 1000 mg/kg, 336 h, time 14 day
[14] = Acute toxicity in fasted ICR mouse assessed as animal death at 1 g/kg, po followed by food supply after 2 hrs post compound administration measured for 14 days; assay type: organism-based; conditions: in vivo, 1000 mg/kg, 336 h, time 14 day
[15] = system: Mus musculus; experiment: Antialzheimer activity against amyloid beta (1 to 42)-induced mouse model of cognitive dysfunction assessed as reaching target platform at 15 mg/kg, po measured for 14 days by Morris Water maze method; assay type: functional, organism-based; conditions: ICR, time 14.0 day
[16] = target: Cholinesterase (Equus caballus, UniProt P81908); experiment: Inhibition of horse serum BuChE using butyrylthiocholine iodide as substrate measured for 3 mins by Ellman's method; assay type: cell-free
Chain of Cholinesterase (Equus caballus, UniProt P81908) (P81908 whole entry): as above

## Cc1ccccc1NC(=O)CN(Cc1ccc2ccccc2c1)CC(C)C
[1]
  Activity: Dose-Dependent Effect
[2]
  IC50: 16 nM
[3]
  inhibition: 22.2%
[4]
  viability at 24 h: 47.8%
[5]
  CC50 at 24 h: 18.9 µM
[6]
  CC50 at 24 h: 78.8 µM
[7]
  Time: 11.4 s
[8]
  inhibition: 94.3%
[9]
  inhibition: Active
[10]
  CC50 at 24 h: 39.3 µM
[11]
  Activity: Toxic
[12]
  Papp at 18 h, 25 ug/ml: 13.1 ×10⁻⁶ cm/s
[13]
  Activity: Non-Toxic
[14]
  Activity: Non-Toxic
[15]
  Activity: Active
[16]
  IC50: 220 nM
